# Where a name gives a salt, the structure may show the parent alone. Read-outs that look alike come from different tables or passages of the source.
# Assays:
# [1] = system: patients diagnosed with MDD; details: citalopram non-responders, cited from earlier work
# [2] = Solubility (37° C.) in 0.1N HCl, pH 4.5, pH 6.8; format: physicochemical; design: Solubility (37° C.): unit not given here; details: hydrochloride
# [3] = In-vitro dissolution, 900 ml medium (0.1N HCl, pH 4.5 acetate buffer, pH 6.8 or pH 7.5 phosphate buffer), USP Apparatus 1, 75 rpm, 37° C.; format: physicochemical; details: 0.1N HCl; for % Released (Bi-layer Tablets): Example 16 coated bi-layer tablet; for % Released (Homogenous Tablets): Example 19 tablet
# Protocol: The dissolution profile of the above pharmaceutical composition was determined under the dissolution conditions described below in Tables 1A, 1B, and 1C.
compound,measurement,setting,value
"CC(NC(C)(C)C)C(=O)c1cccc(Cl)c1 (stereo not drawn) [Bupropion, bupropion]",remission rate,[1]; bupropion added on to the existing citalopram treatment,30%
same,remission rate,[1]; switched to bupropion,20%
"CC(NC(C)(C)C)C(=O)c1cccc(Cl)c1 (stereo not drawn) [Bupropion HCl, bupropion hydrochloride]",Solubility (37° C.),[2]; 0.1N HCl,416
same,Solubility (37° C.),[2]; pH 4.5,437
same,Solubility (37° C.),[2]; pH 6.8,437
same,% Released (Bi-layer Tablets),[3]; 1 hr,16.36%
same,% Released (Bi-layer Tablets),[3]; 2 hr,33.56%
same,% Released (Bi-layer Tablets),[3]; 3 hr,49.54%
same,% Released (Bi-layer Tablets),[3]; 4 hr,65.00%
same,% Released (Bi-layer Tablets),[3]; 5 hr,79.63%
same,% Released (Bi-layer Tablets),[3]; 6 hr,88.97%
same,% Released (Bi-layer Tablets),[3]; 7 hr,94.82%
same,% Released (Bi-layer Tablets),[3]; 8 hr,97.06%
same,% Released (Homogenous Tablets),[3]; 1 hr,16.63%
same,% Released (Homogenous Tablets),[3]; 2 hr,39.40%
same,% Released (Homogenous Tablets),[3]; 3 hr,60.60%
same,% Released (Homogenous Tablets),[3]; 4 hr,78.36%
same,% Released (Homogenous Tablets),[3]; 5 hr,90.30%
same,% Released (Homogenous Tablets),[3]; 6 hr,96.38%
same,% Released (Homogenous Tablets),[3]; 7 hr,99.14%
same,% Released (Homogenous Tablets),[3]; 8 hr,100.26%

# — patent US20090246276A1, “Pharmaceutical Compositions” (priority 2008, published 2009)
